# Source: patent publication US20080248008A1, “Inhibitors of Protein Kinase a Anchoring” (priority 2004, published 2008)
# Assays:
# StAR = StAR protein level in Y1 adrenal cells (immunoblot densitometry); type: cell-based, mouse
# Method: Progesterone production and StAR protein level. Y1 cells were cultured overnight in 6-well plates at the density of 1.5×10^6 cells per well. To increase the basal level of StAR, the cells were pre-stimulated with 10 μM forskolin for 1 hour, washed twice with medium, before peptide loading. Thereafter, the cells were loaded with 50 μM of the arginine-coupled peptide for 5 hours before being treated with 5 μg/ml Actinomyocin D (Cat. No. A-9415, Sigma) for 30 min and stimulated with 10 μM forskolin (Cat. No. 344270, Calbiochem) or 10 IU/ml ACTH (Cat. No. A-6303, Sigma) for 12 hours. Media from cultures with different treatments were collected and diluted with plain medium to fall into the standard curves for the assay. Progesterone in the cell medium was measured by using either Spectria Progesterone RIA (Cat. No. 68521, Orion Diagnostica, Espoo, Finland) or DELFIA progesterone kit (Cat. No. A066-101, PerkinElmer) following the conditions recommended by the manufacture. The cells were lysed and the StAR protein was analysed by western blotting and the level measured by densiometric analysis.
# StAR protein levels in the samples from Example 28 were analysed by immunoblotting. StAR consists of a 37-kDa precursor form containing an N-terminal mitochondrial targeting sequence and a processed 30-kDa mature protein (Epstein and Ormejohnson, 1991; Stocco and Sodeman, 1991). Y1 adrenal cells expressed a low basal level of StAR (FIG. 27, upper panel, lane 1). Upon forskolin stimulation, a significant increase in mature StAR protein (lane 2) occurred consistent with an increase in cholesterol transport over the mitochondrial membrane and a corresponding increase in steroid biosynthesis (bar diagram in FIG. 26). The forskolin-stimulated levels of StAR protein were reduced by 60% in MEME3-Arg11 treated cells (lane 5 and lower panel). In contrast, treatment with SM3-Arg11 reduced StAR levels by […] (lane 8, and lower panel). Thus, MEME3-Arg11 reduced StAR levels by […] as SM3-Arg11. […]
# [1] = molecular target: T1, N-terminal RIα deletion mutants (Bos taurus, UniProt P00514, A98S); experiment: R-overlay with N-terminal RIα deletion mutants; type: binding
# T1 construct: made in house; host or cells: E. coli BL21 (B121 [sic])
# Method: (§1) R-overlay. R-overlays were conducted as described, using ^32P-labeled recombinant murine RII (Hausken, Z. E., et al., 1998 in Protein Targeting Protocols, ed. Clegg, R. A. (Humana, Totowa, N.J.), Vol. 88, pp. 47-64) or recombinant bovine RI (A98S) or by cold RI-overlay where bound RIα was detected by Western blot. Cold RI-overlay was performed by incubating the membranes with 250 nM RI overnight at 4° C., then the membranes were washed five times in TBST for 5 min. Detection of RI was performed using an anti-RI rabbit polyclonal antibody (Santa Cruz) at a concentration of 0.2 μg/μl for 1 hour at 4° C. Then the membranes were washed five times for 5 minutes in PBS followed by incubation with HRP-conjugated anti-rabbit IgGs (1:5000) for 1 hour at 4° C. The membranes were washed in PBS as described above before detection by Supersignal West Dura Extended Duration Substrate (Pierce).
# (§2) Constructs and mutagenesis. […]
# (§3) MEME3 and SM3 (scrambled negative control peptide) were cloned by preferred codon usage (Haas et al., 1996, Current Biol., 6:315-324) and with an N-terminal GFP-fusion. Lysate from transfected HEK293 cells (FIG. 10, left panel in A) and MEME3 synthesized on membrane (right panel in A) were analysed for R binding by RIα-^32P-overlay and RIIα-^32P overlay. […]
# [2] = test system: N-terminal RIα deletion mutants; experiment: R-overlay with N-terminal RIα deletion mutants; type: binding; conditions: compared with RIα
# Method: as §1, §2, §3
# RI(Δ1-24) = molecular target: T2, RI(Δ1-24) (Bos taurus, UniProt P00514); experiment: Co-precipitation with recombinant RI(Δ1-24) added to HEK293 lysate; type: binding; conditions: recombinant protein added to cell lysate
# T2 construct: made in house; host or cells: E. coli BL21 (B121 [sic])
# Source text: Constructs and mutagenesis. Oligonucleotides with the following sequences were directionally cloned into EGFP-C (Clonetech) vector via TOPO blunt vector (Invitrogen) by using SalI and BamHI sites. MEME3(+), 5′-GTC GAC-CTGGAGCAGTACGCCAACCAGCTGGCCGACCAGATCATCAAGGAGGCCACCGAG-GGA TCC-3′; MEME3 (−), 5′-GGA TCC-CTCGGTGGCCTCCTTGATGATCTGGTCGGCCAGCTGGTTGGCGTACTGCTCCAG-GTC GAC-3′; Scramble (+), 5′-GTCGACATCGAGAAGGAGCTGGCCCAGCAGTACCAGAACGCCGACGCCATCACCCTGGAGGGATCC-3′; and Scramble (−), 5′-GGATCCCTCCAGGGTGATGGCGTCGGCGTTCTGGTACTGCTGGGCCAGCTCCTTCTCGATGTCGAC-3′. The site specific mutation, A98S, was made in RI wild type cloned into pRSETB (Invitrogen) using a site specific-mutagenesis kit (Stratagene). RI( 1-11), RI(Δ1-15) and RI(Δ1-24) mutants were made by PCR and re-cloned into pRSETB (Invitrogen). All constructs were confirmed by sequencing.
# HEK293 cells at […] were transfected with ten μg of plasmid DNA (GFP, GFP-MEME3 or GFP-Scrambled MEME3) by using the CaCl2 method. […]
# In FIG. 4D, the co-precipitation of recombinant full length and N-truncated RI (added to the cell lysate) with MEME3 was detected by immunoblotting using a monoclonal antibody against RI (lane 2-4).
# T2 sequence (P00514 25-380, stated change not applied): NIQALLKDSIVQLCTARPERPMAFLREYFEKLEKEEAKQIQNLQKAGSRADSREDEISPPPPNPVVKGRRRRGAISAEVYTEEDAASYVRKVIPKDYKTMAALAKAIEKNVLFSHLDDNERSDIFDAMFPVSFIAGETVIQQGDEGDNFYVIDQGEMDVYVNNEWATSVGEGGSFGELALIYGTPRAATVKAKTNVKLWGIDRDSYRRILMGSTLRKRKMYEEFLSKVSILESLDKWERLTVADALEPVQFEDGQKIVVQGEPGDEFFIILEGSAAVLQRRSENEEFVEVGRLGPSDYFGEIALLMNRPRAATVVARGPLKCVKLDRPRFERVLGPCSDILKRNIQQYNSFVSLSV
# T1 sequence (P00514 25-380 A98S): as the sequence (P00514 25-380, stated change not applied) above, with A74S counted along it
Molecule,reduction of StAR levels relative to SM3-Arg11 (StAR),reduction of forskolin-stimulated levels of StAR protein (StAR; forskolin) [%],basal StAR level (StAR; unstimulated),binding to RIα (Δ1-24) (overlay) [1],binding to RIα (Δ1-11) and RIα (Δ1-15) (overlay) [2],co-precipitation with RI(Δ1-24) (RI(Δ1-24))
LEQYANQLADQIIKEATERRRRRRRRRrr [MEME3-Arg11],twice as much,60,somewhat higher basal StAR level,–,–,–
CC[C@H](C)[C@H](NC(=O)[C@H](CCC(N)=O)NC(=O)[C@H](CC(=O)O)NC(=O)[C@H](C)NC(=O)[C@H](CC(C)C)NC(=O)[C@H](CCC(N)=O)NC(=O)[C@H](CC(N)=O)NC(=O)[C@H](C)NC(=O)[C@H](Cc1ccc(O)cc1)NC(=O)[C@H](CCC(N)=O)NC(=O)[C@H](CCC(=O)O)NC(=O)[C@@H](N)CC(C)C)C(=O)N[C@H](C(=O)N[C@@H](CCCCN)C(=O)N[C@@H](CCC(=O)O)C(=O)N[C@@H](C)C(=O)N[C@H](C(=O)N[C@@H](CCC(=O)O)C(=O)N[C@@H](CCCCNC(=O)c1ccc2c(c1)C(=O)OC21c2ccc(O)cc2Oc2cc(O)ccc21)C(N)=O)[C@@H](C)O)[C@@H](C)CC [MEME3],–,–,–,No binding,even higher affinity,did not precipitate MEME3
